Reference: PMC7594079, “Insights into the Function and Evolution of Taste 1 Receptor Gene Family in the Carnivore Fish Gilthead Seabream (Sparus aurata)” (International Journal of Molecular Sciences, 2020)
Values belong to the compound of their own block, whether it stands above or below them.

Target: T1, saT1R2b/R3 (Sparus aurata, UniProt A0A671TG56+A0A671VZB3)
T1 sequence (A0A671TG56 20-821): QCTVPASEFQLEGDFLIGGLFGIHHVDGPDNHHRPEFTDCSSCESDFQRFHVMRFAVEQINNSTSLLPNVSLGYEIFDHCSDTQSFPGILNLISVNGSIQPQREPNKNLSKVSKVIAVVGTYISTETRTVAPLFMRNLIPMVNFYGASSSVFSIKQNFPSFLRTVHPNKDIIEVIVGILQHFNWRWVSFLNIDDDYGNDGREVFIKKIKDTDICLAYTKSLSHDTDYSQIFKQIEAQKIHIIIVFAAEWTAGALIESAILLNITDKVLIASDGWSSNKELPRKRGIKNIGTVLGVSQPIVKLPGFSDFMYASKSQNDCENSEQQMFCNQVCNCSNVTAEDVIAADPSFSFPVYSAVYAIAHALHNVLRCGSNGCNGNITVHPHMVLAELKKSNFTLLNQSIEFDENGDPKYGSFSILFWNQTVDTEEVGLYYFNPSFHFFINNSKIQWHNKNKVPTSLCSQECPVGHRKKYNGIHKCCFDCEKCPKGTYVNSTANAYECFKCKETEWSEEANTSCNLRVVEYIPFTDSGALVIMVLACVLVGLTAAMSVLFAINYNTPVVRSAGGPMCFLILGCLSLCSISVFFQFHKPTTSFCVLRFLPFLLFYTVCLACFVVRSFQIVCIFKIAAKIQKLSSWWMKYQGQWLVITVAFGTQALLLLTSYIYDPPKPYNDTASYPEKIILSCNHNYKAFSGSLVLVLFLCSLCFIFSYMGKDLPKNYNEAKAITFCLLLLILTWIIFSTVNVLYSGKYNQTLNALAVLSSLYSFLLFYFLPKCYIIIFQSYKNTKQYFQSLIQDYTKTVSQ
T1 sequence (A0A671VZB3 24-860): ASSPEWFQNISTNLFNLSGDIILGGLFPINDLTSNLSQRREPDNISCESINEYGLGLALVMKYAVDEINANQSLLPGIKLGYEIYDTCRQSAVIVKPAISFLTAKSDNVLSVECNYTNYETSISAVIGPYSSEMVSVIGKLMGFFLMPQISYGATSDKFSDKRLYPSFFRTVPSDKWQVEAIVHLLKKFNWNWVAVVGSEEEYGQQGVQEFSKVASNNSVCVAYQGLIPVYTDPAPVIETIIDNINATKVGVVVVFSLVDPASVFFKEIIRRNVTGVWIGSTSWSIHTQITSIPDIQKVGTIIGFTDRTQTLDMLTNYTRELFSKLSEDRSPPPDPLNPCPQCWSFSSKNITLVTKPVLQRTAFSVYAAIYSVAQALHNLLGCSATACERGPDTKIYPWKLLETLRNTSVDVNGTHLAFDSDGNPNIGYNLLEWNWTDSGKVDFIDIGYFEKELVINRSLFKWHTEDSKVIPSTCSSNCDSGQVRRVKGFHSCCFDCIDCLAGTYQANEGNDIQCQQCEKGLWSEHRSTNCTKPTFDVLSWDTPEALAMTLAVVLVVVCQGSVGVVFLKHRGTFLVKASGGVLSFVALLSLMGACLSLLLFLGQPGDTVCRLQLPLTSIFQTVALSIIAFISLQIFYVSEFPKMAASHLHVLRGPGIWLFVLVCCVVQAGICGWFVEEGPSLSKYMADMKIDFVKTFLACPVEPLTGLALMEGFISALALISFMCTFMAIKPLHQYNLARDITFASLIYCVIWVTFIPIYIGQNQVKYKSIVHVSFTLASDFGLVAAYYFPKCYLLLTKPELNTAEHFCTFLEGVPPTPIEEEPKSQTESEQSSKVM
Assay: saT1R2b/R3 heterodimer transiently transfected in stable pGL3-NFAT-luc-HEK293 (Cl.3) cells, luciferase reporter
Format: cell-based
Conditions: for T1R2b/R3 [MSD] maximum stimulation dose: as molarity, decimal comma
Excerpt: Figure 6 Amino acid Log-dose response curves of activation in heterologous co-transfected (Cl.3) cells with saT1R1/3 (green dots), saT1R2a/3 (red squares) and saT1R2b/3 (black triangles) heterodimers. Evaluation of L-AA responses was based on the RLU mean ± SEM of four independent determinations normalized to the mean response of the same transfections stimulated with reduced assay medium (Basal Medium Eagle w/o L-glutamate (BME) + 1% FBS), and expressed as the percentage relative to basal levels (BL).
HEK293 cells were cultured in standard medium DMEM (Gibco, Thermo Fisher, Saint Louis, MO, USA) containing 10% FBS, penicillin (100 U/mL) and streptomycin ([…]) at 37 °C, with a humidified atmosphere at 5% CO2. pGL3-NFAT-luc-HEK293 stable clones were generated by co-transfections of pGL3-NFAT-luc and tgCMV/HyTK plasmids (50:1), the latter harboring the hygromycin phosphotransferase gene, using Lipofectamine LTX according to supplier’s protocols (Thermo Fisher, Saint Louis, MO, USA). Initially, HEK293 cells were selected using DMEM containing 400 μg/mL hygromycin B (Sigma, Darmstadt, Germany) in 24-well plates for two weeks; 24 colonies were further grown out in 96-well plates under reduced hygromycin selection (200 µg/mL) for three weeks. Potentially resistant NFAT-luc-HEK293 clones (n = 22) were validated after incubation in assay medium (DMEM + 1% FBS) containing PMA or Ionomycin (Sigma, Darmstadt, Germany) for 18 h (triplicates, 50,000 cells/well). Luciferase activity was quantified with ONE-Glo™ EX Reagent Kit (Promega, Madison, WI, USA) using a 96-microplate TECAN reader (Trading AG, Switzerland).
saT1Rs (saT1R1, saT1R2a, saT1R2b saT1R3) and saGαi1-2 genes were RT-PCR amplified using 5’ and 3’ flanking primers carrying HindIII and XhoI restriction sites, respectively. Gel-purified fragments were cloned into pGEM-T Easy vectors, re-sequenced, digested and subcloned into pcDNA™3 (Invitrogen, Carlsbad, CA, USA). Effective saT1R cloning into pcDNA™3 was further verified by HindIII/XhoI digestion. Transient co-transfections were done in 6-well plates (confluence ~70–80%) using 100 μL of reduced serum medium (Opti-MEM, Gibco, Thermo Fisher, Saint Louis, MO, USA) containing 150 ng of each selected pcDNA™3 construct, 1:10 charge ratio of Enhanced Green Fluorescent expressing construct (EGFP; positive control), and pBluescript II SK (+) vector DNA (Addgene, Watertown, MA, USA) up to 1 µg of totally transfected DNA. Following 24 h incubation, cells were washed with fresh standard medium and plated in polylysine treated plates for additional 24 h. Cells were then stimulated with L-AAs and sugar compounds for 18 h in a reduced assay medium (BME w/o L-glutamate; Gibco, Thermo Fisher, Saint Louis, MO, USA) + 1% FBS), to prevent unspecific Ca^2+/NFAT signaling activation and potential saT1R desensitization. All L-AAs and sugars used for in vitro experiments were obtained from Merck KGaA (Darmstadt, Germany).

SMILES: N[C@@H](CO)C(=O)O [Ser, Serine]
T1R2b/R3 [MSD] maximum stimulation dose: 1,00 × 10^-1 M

SMILES: NC(=O)CC[C@H](N)C(=O)O [Gln, Glutamine]
T1R2b/R3 [MSD] maximum stimulation dose: 1,00 × 10^-1 M

SMILES: N[C@@H](Cc1ccc(O)cc1)C(=O)O [Tyr, Tyrosine]
T1R2b/R3 [MSD] maximum stimulation dose: 1,00 × 10^-3 M

SMILES: N[C@@H](Cc1c[nH]cn1)C(=O)O [His, Histidine]
T1R2b/R3 [MSD] maximum stimulation dose: 1,00 × 10^-5 M

SMILES: N=C(N)NCCC[C@H](N)C(=O)O [Arg, Arginine]
T1R2b/R3 [MSD] maximum stimulation dose: 1,00 × 10^-5 M

SMILES: CSCC[C@H](N)C(=O)O [Met, Methionine]
T1R2b/R3 [MSD] maximum stimulation dose: 1,00 × 10^-1 M

SMILES: N[C@@H](Cc1c[nH]c2ccccc12)C(=O)O [Trp, Tryptophan]
T1R2b/R3 [MSD] maximum stimulation dose: 1,00 × 10^-3 M

SMILES: N[C@@H](CC(=O)O)C(=O)O [Asp, Aspartic acid]
T1R2b/R3 [MSD] maximum stimulation dose: 1,00 × 10^-5 M

SMILES: CC(C)C[C@H](N)C(=O)O [Leu, Leucine]
T1R2b/R3 [MSD] maximum stimulation dose: 1,00 × 10^-1 M

concentration with significant activation (saT1R2b/R3, tested 1–500 mM): 200 mM
SMILES: OC[C@H]1OC(O)[C@H](O)[C@@H](O)[C@@H]1O (stereo partly drawn) [D-Glucose]

SMILES: NC(=O)C[C@H](N)C(=O)O [Asn, Asparagine]
T1R2b/R3 [MSD] maximum stimulation dose: 1,00 × 10^-1 M

SMILES: N[C@@H](CS)C(=O)O [Cys, Cysteine]
T1R2b/R3 [MSD] maximum stimulation dose: 1,00 × 10^-4 M

T1R2b/R3 [MSD] maximum stimulation dose: 1,00 × 10^-2 M
SMILES: N[C@@H](CCC(=O)O)C(=O)O [Glu, Glutamic acid]

SMILES: O=C(O)[C@@H]1CCCN1 [Pro, Proline]
T1R2b/R3 [MSD] maximum stimulation dose: 1,00 × 10^-1 M

SMILES: C[C@@H](O)[C@H](N)C(=O)O [Thr, Threonine]
T1R2b/R3 [MSD] maximum stimulation dose: 1,00 × 10^-1 M

SMILES: N[C@@H](Cc1ccccc1)C(=O)O [Phe, Phenylalanine]
T1R2b/R3 [MSD] maximum stimulation dose: 1,00 × 10^-2 M

SMILES: NCC(=O)O [Gly, Glycine]
T1R2b/R3 [MSD] maximum stimulation dose: 1,00 × 10^-1 M

SMILES: CC[C@H](C)[C@H](N)C(=O)O [Ile, Isoleucine]
T1R2b/R3 [MSD] maximum stimulation dose: 1,00 × 10^-1 M

SMILES: CC(C)[C@H](N)C(=O)O [Val, Valine]
T1R2b/R3 [MSD] maximum stimulation dose: 1,00 × 10^-1 M

SMILES: NCCCC[C@H](N)C(=O)O [Lys, Lysine]
T1R2b/R3 [MSD] maximum stimulation dose: 1,00 × 10^-3 M

SMILES: C[C@H](N)C(=O)O [Ala, Alanine]
T1R2b/R3 [MSD] maximum stimulation dose: 1,00 × 10^-1 M
